Activity calls are given as the source filed them. The calls are words filed in the database; no cut-off is given here.
What was measured:
Format in all cases: functional, cell-based
[1] = target: T1, Taste receptor type 2 member 4 (Homo sapiens) (UniProt Q9NYW5); test: Activity at recombinant human N-terminal rat ST3 receptor-fused TAS2R4 expressed in HEK293T cells co-expressing Galpha16gust44 assessed as effect on colchicine-induced intracellular calcium level at 100 uM by FLIPR assay
T1 sequence (whole entry): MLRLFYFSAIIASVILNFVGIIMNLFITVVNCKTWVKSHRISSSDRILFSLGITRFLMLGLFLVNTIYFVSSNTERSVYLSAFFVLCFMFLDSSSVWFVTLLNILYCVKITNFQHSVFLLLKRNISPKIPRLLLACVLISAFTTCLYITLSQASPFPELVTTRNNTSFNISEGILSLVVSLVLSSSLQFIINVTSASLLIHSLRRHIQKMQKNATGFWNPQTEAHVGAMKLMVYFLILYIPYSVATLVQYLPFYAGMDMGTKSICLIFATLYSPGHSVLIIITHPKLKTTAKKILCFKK

[2] = target: T2, Taste receptor type 2 member 43 (Homo sapiens) (UniProt P59537); test: Antagonist activity at recombinant human N-terminal rat ST3 receptor-fused TAS2R43 expressed in HEK293T cells co-expressing Galpha16gust44 assessed as reduction in aristolochic acids-induced intracellular calcium level at 100 uM by FLIPR assay
T2 sequence (whole entry): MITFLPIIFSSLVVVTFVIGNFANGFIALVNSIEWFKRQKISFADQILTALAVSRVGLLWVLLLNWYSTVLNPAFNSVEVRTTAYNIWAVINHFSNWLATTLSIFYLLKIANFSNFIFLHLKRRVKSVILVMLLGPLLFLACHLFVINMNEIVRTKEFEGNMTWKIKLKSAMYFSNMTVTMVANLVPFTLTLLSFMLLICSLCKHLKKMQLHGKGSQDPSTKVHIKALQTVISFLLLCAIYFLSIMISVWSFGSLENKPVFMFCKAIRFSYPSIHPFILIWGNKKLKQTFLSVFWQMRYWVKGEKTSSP

[3] = target: T3, Taste receptor type 2 member 14 (Homo sapiens) (UniProt Q9NYV8); test: Activity at recombinant human N-terminal rat ST3 receptor-fused TAS2R14 expressed in HEK293T cells co-expressing Galpha16gust44 assessed as effect on aristolochic acids-induced intracellular calcium level at 100 uM by FLIPR assay
T3 sequence (whole entry): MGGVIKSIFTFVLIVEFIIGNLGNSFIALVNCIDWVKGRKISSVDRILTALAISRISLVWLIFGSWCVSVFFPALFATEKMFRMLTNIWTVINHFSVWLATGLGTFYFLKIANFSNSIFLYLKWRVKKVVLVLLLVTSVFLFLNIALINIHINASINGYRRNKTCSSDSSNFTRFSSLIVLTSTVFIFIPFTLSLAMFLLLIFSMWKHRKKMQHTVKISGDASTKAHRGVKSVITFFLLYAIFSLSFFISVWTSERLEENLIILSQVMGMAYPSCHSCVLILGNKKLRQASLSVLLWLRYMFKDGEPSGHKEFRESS

[4] = target: T4, Taste receptor type 2 member 46 (Homo sapiens) (UniProt P59540); test: Antagonist activity at recombinant human N-terminal rat ST3 receptor-fused TAS2R46 expressed in HEK293T cells co-expressing Galpha16gust44 assessed as inhibition of picrotoxinin-induced intracellular calcium level at 100 uM by FLIPR assay
T4 sequence (whole entry): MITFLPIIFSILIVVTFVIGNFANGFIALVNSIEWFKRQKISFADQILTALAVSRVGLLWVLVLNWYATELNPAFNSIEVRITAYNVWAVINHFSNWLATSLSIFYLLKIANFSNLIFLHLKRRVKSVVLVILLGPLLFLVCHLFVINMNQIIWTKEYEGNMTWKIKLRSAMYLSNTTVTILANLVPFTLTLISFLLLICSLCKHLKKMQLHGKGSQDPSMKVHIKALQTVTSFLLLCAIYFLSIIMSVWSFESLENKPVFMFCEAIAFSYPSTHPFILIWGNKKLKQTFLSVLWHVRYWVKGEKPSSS

[5] = target: T5, Taste receptor type 2 member 1 (Homo sapiens) (UniProt Q9NYW7); test: Activity at recombinant human N-terminal rat ST3 receptor-fused TAS2R1 expressed in HEK293T cells co-expressing Galpha16gust44 assessed as effect on trans-isocohumulone-induced intracellular calcium level at 100 uM by FLIPR assay
T5 sequence (whole entry): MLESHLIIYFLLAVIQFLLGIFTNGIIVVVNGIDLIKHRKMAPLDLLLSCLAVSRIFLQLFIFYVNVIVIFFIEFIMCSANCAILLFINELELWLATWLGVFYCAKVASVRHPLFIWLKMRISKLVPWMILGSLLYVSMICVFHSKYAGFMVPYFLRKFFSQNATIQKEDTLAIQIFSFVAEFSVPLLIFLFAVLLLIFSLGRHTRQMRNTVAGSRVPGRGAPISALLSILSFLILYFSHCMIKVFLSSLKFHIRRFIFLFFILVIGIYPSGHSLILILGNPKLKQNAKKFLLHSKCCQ

[6] = target: T6, Taste receptor type 2 member 39 (Homo sapiens) (UniProt P59534); test: Activity at recombinant human N-terminal rat ST3 receptor-fused TAS2R39 expressed in HEK293T cells co-expressing Galpha16gust44 assessed as effect on epigallocatechin gallate-induced intracellular calcium level at 100 uM by FLIPR assay
T6 sequence (whole entry): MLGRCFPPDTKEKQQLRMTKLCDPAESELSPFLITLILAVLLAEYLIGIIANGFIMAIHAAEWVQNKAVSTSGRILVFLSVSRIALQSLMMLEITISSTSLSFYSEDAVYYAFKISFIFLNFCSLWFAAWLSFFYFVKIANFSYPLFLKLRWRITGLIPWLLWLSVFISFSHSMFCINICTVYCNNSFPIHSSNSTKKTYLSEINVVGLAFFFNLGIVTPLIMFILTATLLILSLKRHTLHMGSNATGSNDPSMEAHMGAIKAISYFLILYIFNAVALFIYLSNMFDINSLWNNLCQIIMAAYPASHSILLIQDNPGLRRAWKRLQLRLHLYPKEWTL

[7] = target: T7, Taste receptor type 2 member 3 (Homo sapiens) (UniProt Q9NYW6); test: Activity at recombinant human N-terminal rat ST3 receptor-fused TAS2R3 expressed in HEK293T cells co-expressing Galpha16gust44 assessed as effect on chloroquine-induced intracellular calcium level at 100 uM by FLIPR assay
T7 sequence (whole entry): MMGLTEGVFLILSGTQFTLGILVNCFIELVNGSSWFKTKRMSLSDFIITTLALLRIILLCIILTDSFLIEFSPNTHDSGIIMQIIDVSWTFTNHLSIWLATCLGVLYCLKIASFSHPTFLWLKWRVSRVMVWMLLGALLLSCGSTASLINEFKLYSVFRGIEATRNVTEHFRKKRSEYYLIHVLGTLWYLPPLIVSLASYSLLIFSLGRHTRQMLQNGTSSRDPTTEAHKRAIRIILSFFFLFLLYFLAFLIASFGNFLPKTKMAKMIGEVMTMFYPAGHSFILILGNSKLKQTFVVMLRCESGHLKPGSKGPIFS

Row | SMILES | Activity [1] | inhibition [2] | Activity [3] | inhibition [4] | Activity [5] | Activity [6] | Activity [7]
1 | C/C1=C\C[C@H](O)/C(C)=C/[C@H]2OC(=O)[C@@H](C)C2CC1 (some centres undefined) | inactive | Active | inactive | Active | inactive | inactive | inactive
2 | C/C1=C\C[C@H](O)[C@@H](C)C[C@H]2OC(=O)[C@@H](C)C2CC1 (some centres undefined) | inactive | 100% | inactive | Active | inactive | inactive | inactive
